According to patent publication US20050043331A1, “Substituted 3-(2,5-disubstituted)pyridyl-4-aryl pyrroles for treating inflammatory diseases” (priority 2002, published 2005):

Tests used:
[1] = test system: TNF-α; assay: In-vitro whole cell assay for TNF-α inhibition (LPS-stimulated PBMC, ELISA); assay type: cell-based; conditions: TNF-α by ELISA
Method in brief: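 Human PBMC from heparinized venous blood (Ficoll-Hypaque), 1.67×10^6/mL in low-endotoxin RPMI/1% FCS, preincubated with compound 1 h at 37° C, then stimulated with LPS (200 ng/mL stock) overnight at 37° C. Duplicate wells. Supernatant TNF-α quantified by ELISA.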

[2] = target: T1, P38 (Homo sapiens, UniProt Q16539); assay: P38 cell, 1 μM LJ; assay type: cell-based; parameters: unit not given here
T1 sequence (Q16539 whole entry): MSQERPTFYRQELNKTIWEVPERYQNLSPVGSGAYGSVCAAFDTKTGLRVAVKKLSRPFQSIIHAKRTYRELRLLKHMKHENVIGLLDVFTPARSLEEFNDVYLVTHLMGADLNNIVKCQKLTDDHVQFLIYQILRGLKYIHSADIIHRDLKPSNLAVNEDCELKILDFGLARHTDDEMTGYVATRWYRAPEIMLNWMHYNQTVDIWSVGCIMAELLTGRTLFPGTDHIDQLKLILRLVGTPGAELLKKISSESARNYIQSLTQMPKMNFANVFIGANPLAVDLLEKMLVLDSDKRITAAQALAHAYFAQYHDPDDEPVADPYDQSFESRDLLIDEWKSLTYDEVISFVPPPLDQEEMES

[3] = target: T1, P38; assay: p38 inhibition in-vitro enzyme assay; assay type: biochemical; conditions: recombinant 6×His-p38
Protocol: Purified recombinant 6×His-p38 and GST-ATF2 (both expressed in Baculovirus) were served as enzyme and substrate in our p38 inhibition assay. The enzyme reaction was performed in the anti-GST antibody pre-coated 96-well ELISA plate.
A 96-well ELISA plate was coated with 100 μl/well of anti-GST antibody (from Amersham) at a concentration of […] and incubated overnight at 4° C. The ELISA plate was blocked with 100 μl/well of 1% BSA at 25° C. for at least 2 hours, then the plate was washed with 300 μl PBST. The enzyme reaction was started by adding 10 μl of p38 recombinant protein (0.05 nM in final concentration), 10 μl of compound in desired concentration, 10 μl of substrates (670 μM ATP, 200 nM GST-ATF2 in final concentration) and 70 μl of reaction buffer (50 mM HEPES, pH 7.4, 100 mM NaCl, 10 mM MgCl2) and the mixture was incubated at 37° C. for 30 min. Washing the reaction plate with 3×300 μl/well of PBST stopped the enzyme reaction. Detection of the phosphorylated ATF2 substrate was done by the addition of 100 μl of anti-Pi-ATF2 antibody (from Cell Signaling) at a 1:200 dilution. The mixture was incubated at 25° C. for 30 min. A solution of 100 μl of HRP-conjugated goat anti-rabbit antibody (from Pierce) at a 1:250 dilution was added and the mixture and incubated at 25° C. for 30 min. The plate was washed with 6×300 μI PBST and 100 μl of OPD substrate (from Sigma) was then added. The mixture was incubated at 25° C. for 10 min. before adding 100 μl of 3 N H2SO4. The plate was read at 490 nm.
The % inhibition of each test compound was calculated by the following formula: % inhibition=[1−(sample−BKG)/(CTRL−BKG)]×100. The IC50 of each test compound was determined by a triplicate-8 point dose titration curve by Prism GraphPad program. […]

[4] = test system: TNF-α; assay: In vivo rodent assay for inhibition of LPS-induced TNF-α production; parameters: species or system Mice (BALB/cJ females); conditions: Mus musculus, po, 0.5 h, 10 mg/kg oral, 0.5 h, read-out: Mouse 10 mg/kg % inhib 0.5 h
Method in brief: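 Female BALB/cJ mice or male Lewis rats, fasted 30 min, received compound orally (mg/kg) at various times before intraperitoneal LPS at 1 mg/kg. Blood was collected by cardiac puncture 1 h after LPS, and serum TNF-α was quantified by species-specific ELISA.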

| IC50 [1] [nM] | P38 cell 1 μM LJ [2] | IC50 [3] [nM] | SMILES | inhibition in vivo at 10 mg/kg [4] [%] |
| --- | --- | --- | --- | --- |
| 3 | 90 | 55 | C[C@H](Nc1nccc(-c2c[nH]cc2-c2ccc(F)cc2)n1)c1ccccc1 [Cpd 67] | – |
| 905 | 6 | 905 | Nc1[nH]cc(-c2ccc(F)cc2)c1-c1ccncc1 [Cpd 66] | – |
| 10 | – | 1440 | CCCc1[nH]cc(-c2ccc(F)cc2)c1-c1ccnc(N[C@@H](C)c2ccccc2)n1 [Cpd 53] | -19 |
| 118 | 12 | > 10000 | COC(=O)c1c(-c2ccc(F)cc2)c(-c2ccncc2)c(Cc2ccc(N(C)C)cc2)n1C [Cpd 102] | 15 |
| 33 | 7 | 8690 | CCOC(=O)c1c(-c2cc(F)cc(F)c2)c(-c2ccncc2)cn1C [Cpd 64] | -31 |
| 66 | 20 | > 10000 | COC(=O)c1c(-c2ccc(F)cc2)c(-c2ccncc2)c(N2CCc3ccccc3C2)n1C [Cpd 93] | 32 |
| 26 | – | > 10000 | O=C1c2c(-c3ccncc3)c(-c3ccc(F)cc3)cn2C(=O)N1Cc1ccccc1 [Cpd 50] | 51 |
| 50 | – | 1350 | CCCc1c(-c2ccnc(N[C@@H](C)COC)n2)c(-c2ccc(F)cc2)cn1C(=O)OC(C)(C)C [Cpdd 58] | – |
| 560 | 17 | > 10000 | CCOC(=O)c1[nH]cc(-c2ccncc2)c1-c1ccc(F)c(F)c1 [Cpd 69] | -32 |
| 4 | 83 | 7 | C[C@H](Nc1nccc(-c2cn(CCN3CCOCC3)cc2-c2ccc(F)cc2)n1)c1ccccc1 [Cpd 68] | -21 |
| 145 | 20 | > 10000 | COC(=O)c1c(-c2ccc(F)cc2)c(-c2ccncc2)c(NCc2ccncc2)n1C [Cpd 103] | -22 |
| 93 | 12 | > 10000 | CCOC(=O)c1c(-c2cc(F)cc(F)c2)c(-c2ccncc2)c(N2CCNCC2)n1C [Cpd 100] | 75 |
| 69 | 31 | > 10000 | COC(=O)c1c(-c2cccc(F)c2)c(-c2ccncc2)c(N2CCNCC2)n1C [Cpd 105] | 49 |
| 7750 | – | 6180 | CCN1CCCC1CNc1c(-c2ccncc2)c(-c2ccc(F)cc2)c(C(=O)OC)n1C (stereo not shown) [Cpd 109] | – |
| 15 | 61 | 2020 | Cn1cc(-c2ccc(F)cc2)c(-c2ccncc2)c1N1CCNCC1 [Cpd 78] | 75 |
| 67 | 21 | > 10000 | CCC(=O)c1c(-c2ccc(F)cc2)c(-c2ccncc2)c(N2CCNCC2)n1C [Cpd 106] | 32 |
| 114 | 0 | 3470 | CCOC(=O)c1[nH]cc(-c2ccncc2)c1-c1cc(F)cc(F)c1 [Cpd 62] | -14 |
| 74 | 25 | 400 | Fc1ccc(-c2c[nH]c(CNCc3ccncc3)c2-c2ccncc2)cc1 [Cpd 74] | 47 |

| IC50 [1] [nM] | P38 cell 1 μM LJ [2] | IC50 [3] [nM] | SMILES | inhibition in vivo at 10 mg/kg [4] [%] |
| --- | --- | --- | --- | --- |
| 149 | 9 | 572 | CCOC(=O)c1[nH]cc(-c2ccncc2)c1-c1ccccc1 [Cpd 71] | 58 |
| 21 | 11 | > 10000 | CCOC(=O)c1c(-c2cccc(C(F)(F)F)c2)c(-c2ccncc2)c(N2CCNCC2)n1C [Cpd 104] | 83 |
| 1 | 102 | 21 | CCCc1c(-c2ccnc(N[C@@H](C)COC)n2)c(-c2ccc(F)cc2)cn1CCN1CCOCC1 [Cpd 65] | -1 |
| 86 | 91 | 5 | CCCc1[nH]cc(-c2ccc(F)cc2)c1-c1ccnc(N[C@@H](C)COC)n1 [Cpd 61] | -35 |
| 106 | 7 | > 10000 | CNC(=O)c1c(-c2ccc(F)cc2)c(-c2ccncc2)c(N2CCNCC2)n1C [Cpd 99] | -7 |
| 16 | 22 | > 10000 | CCOC(=O)c1c(-c2ccc(F)cc2)c(-c2ccncc2)c(N2CCNCC2)n1C [Cpd 96] | 79 |
| 277 | 4 | 16 | OCc1c(-c2ccc(F)cc2)c(-c2ccncc2)cn1CCN1CCOCC1 [Cpd 59] | -50 |
| 14 | – | > 10000 | O=C(NCc1ccccc1)c1[nH]cc(-c2ccc(F)cc2)c1-c1ccncc1 [Cpd 51] | -60 |
| 145 | – | > 10000 | CCOC(=O)c1[nH]cc(-c2ccc(F)cc2)c1-c1ccncc1 [Cpd 54] | – |
| 38 | – | > 10000 | COC(=O)c1c(-c2ccc(F)cc2)c(-c2ccncc2)c(N(C)CCN2CCOCC2)n1C [Cpd 11, 3-(4-Fluorophenyl)-1-methyl-5-[methyl[2-(4-morpholinyl)ethyl]amino]-4-(4-pyridinyl)-1H-pyrrole-2-carboxylic acid methyl ester] | 66 |
| 148 | 8 | > 2000 | OCCNCc1[nH]cc(-c2ccc(F)cc2)c1-c1ccncc1 [Cpd 63] | – |
| 11 | – | 1660 | Fc1ccc(-c2cn3c(c2-c2ccncc2)CN(Cc2ccccc2)CC3)cc1 [Cpd 29, 7-(4-Fluorophenyl)-1,2,3,4-tetrahydro-2-(phenylmethyl)-8-(4-pyridinyl)-pyrrolo[1,2-a]pyrazine] | -6 |
| 63 | – | 856 | Fc1ccc(-c2c[nH]c(CN3CCNCC3)c2-c2ccncc2)cc1 [Cpd 56] | -41 |
| 50 | 2 | > 10000 | COC(=O)c1c(-c2ccc(F)cc2)c(-c2ccncc2)c(NCCN2CCOCC2)n1C [Cpd 5] | 44 |
| 120 | 13 | > 10000 | CN(C)C(=O)c1c(-c2ccc(F)cc2)c(-c2ccncc2)c(N2CCNCC2)n1C [Cpd 101] | – |
| 60 | 53 | 3940 | CCOC(=O)c1c(-c2ccc(C)cc2)c(-c2ccncc2)c(N2CCNCC2)n1C [Cpd 83] | 79 |
| 2720 | 12 | > 10000 | CCOC(=O)c1c(-c2ccc(F)c(F)c2)c(-c2ccncc2)c(Br)n1C [Cpd 70] | -36 |
